Experimental data as given in the supplement of paper PMC10307832.

Tests used:
Test in all cases: relative viability (nuclei count vs DMSO), 5 days (fraction); higher = more cells survive
SK-LU-1 = tested on: SK-LU-1
How it was run: (§1)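 Relative viability equals treated-well nuclei counts divided by vehicle-well nuclei counts. Counts came from 4× images of lung cancer cell lines grown in 1536-well plates for 5 days after pin-tool dosing on the day after seeding. Dosing used one drug alone or a fixed anchor-drug dose plus five library-drug doses (not always all listed) in √10 steps, and values are medians of duplicate plates.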

NCI-H1650 = tested on: NCI-H1650
How it was run: as §1

NCI-H1944 = tested on: NCI-H1944
How it was run: as §1

UMC-11 = tested on: UMC-11
How it was run: as §1

COR-L23 = tested on: COR-L23
How it was run: as §1

HARA = tested on: HARA
How it was run: as §1

HCC-15 = tested on: HCC-15
How it was run: as §1

LC-2-ad = tested on: LC-2-ad
How it was run: as §1

ChaGo-K-1 = tested on: ChaGo-K-1
How it was run: as §1

NCI-H2405 = tested on: NCI-H2405
How it was run: as §1

NCI-H1993 = tested on: NCI-H1993
How it was run: as §1

EMC-BAC-2 = tested on: EMC-BAC-2
How it was run: as §1

NCI-H23 = tested on: NCI-H23
How it was run: as §1

NCI-H2009 = tested on: NCI-H2009
How it was run: as §1

NCI-H838 = tested on: NCI-H838
How it was run: as §1

HCC-78 = tested on: HCC-78
How it was run: as §1

LK-2 = tested on: LK-2
How it was run: as §1

A-427 = tested on: A-427
How it was run: as §1

ABC-1 = tested on: ABC-1
How it was run: as §1

HCC-366 = tested on: HCC-366
How it was run: as §1

NCI-H2023 = tested on: NCI-H2023
How it was run: as §1

NCI-H1793 = tested on: NCI-H1793
How it was run: as §1

NCI-H1734 = tested on: NCI-H1734
How it was run: as §1

NCI-H2228 = tested on: NCI-H2228
How it was run: as §1

## Clc1ccc(Nc2nnc(Cc3ccncc3)c3ccccc23)cc1 [Vatalanib] + Cc1cc(Nc2cc(N3CCN(C)CC3)nc(Sc3ccc(NC(=O)C4CC4)cc3)n2)n[nH]1 [Tozasertib] (partner 0.1 µM)
SK-LU-1; first compound 0.04 µM
  relative viability: 0.374
SK-LU-1; first compound 0.1265 µM
  relative viability: 0.33
SK-LU-1; first compound 0.4 µM
  relative viability: 0.404
SK-LU-1; first compound 1.265 µM
  relative viability: 0.349
SK-LU-1; first compound 4 µM
  relative viability: 0.322
NCI-H1650; first compound 0.04 µM
  relative viability: 0.398
NCI-H1650; first compound 0.1265 µM
  relative viability: 0.246
NCI-H1650; first compound 0.4 µM
  relative viability: 0.438
NCI-H1650; first compound 1.265 µM
  relative viability: 0.37
NCI-H1650; first compound 4 µM
  relative viability: 0.425
NCI-H1944; first compound 0.04 µM
  relative viability: 0.267
NCI-H1944; first compound 0.1265 µM
  relative viability: 0.247
NCI-H1944; first compound 0.4 µM
  relative viability: 0.262
NCI-H1944; first compound 1.265 µM
  relative viability: 0.266
NCI-H1944; first compound 4 µM
  relative viability: 0.235
UMC-11; first compound 0.04 µM
  relative viability: 0.198
UMC-11; first compound 0.1265 µM
  relative viability: 0.206
UMC-11; first compound 0.4 µM
  relative viability: 0.147
UMC-11; first compound 1.265 µM
  relative viability: 0.214
UMC-11; first compound 4 µM
  relative viability: 0.205
COR-L23; first compound 0.04 µM
  relative viability: 0.232
COR-L23; first compound 0.1265 µM
  relative viability: 0.194
COR-L23; first compound 0.4 µM
  relative viability: 0.206
COR-L23; first compound 1.265 µM
  relative viability: 0.168
COR-L23; first compound 4 µM
  relative viability: 0.173
HARA; first compound 0.04 µM
  relative viability: 0.0991
HARA; first compound 0.1265 µM
  relative viability: 0.11
HARA; first compound 0.4 µM
  relative viability: 0.108
HARA; first compound 1.265 µM
  relative viability: 0.0945
HARA; first compound 4 µM
  relative viability: 0.112
HCC-15; first compound 0.04 µM
  relative viability: 0.419
HCC-15; first compound 0.1265 µM
  relative viability: 0.465
HCC-15; first compound 0.4 µM
  relative viability: 0.478
HCC-15; first compound 1.265 µM
  relative viability: 0.446
HCC-15; first compound 4 µM
  relative viability: 0.426
LC-2-ad; first compound 0.04 µM
  relative viability: 0.53
LC-2-ad; first compound 0.1265 µM
  relative viability: 0.385
LC-2-ad; first compound 1.265 µM
  relative viability: 0.469
LC-2-ad; first compound 4 µM
  relative viability: 0.425
ChaGo-K-1; first compound 0.04 µM
  relative viability: 0.241
ChaGo-K-1; first compound 0.1265 µM
  relative viability: 0.231
ChaGo-K-1; first compound 0.4 µM
  relative viability: 0.242
ChaGo-K-1; first compound 1.265 µM
  relative viability: 0.235
ChaGo-K-1; first compound 4 µM
  relative viability: 0.235
NCI-H2405; first compound 0.04 µM
  relative viability: 0.798
NCI-H2405; first compound 0.1265 µM
  relative viability: 0.726
NCI-H2405; first compound 1.265 µM
  relative viability: 0.627
NCI-H2405; first compound 4 µM
  relative viability: 0.663
NCI-H1993; first compound 0.04 µM
  relative viability: 0.563
NCI-H1993; first compound 0.1265 µM
  relative viability: 0.566
NCI-H1993; first compound 0.4 µM
  relative viability: 0.608
NCI-H1993; first compound 1.265 µM
  relative viability: 0.542
NCI-H1993; first compound 4 µM
  relative viability: 0.592
EMC-BAC-2; first compound 0.04 µM
  relative viability: 0.218
EMC-BAC-2; first compound 0.1265 µM
  relative viability: 0.302
EMC-BAC-2; first compound 0.4 µM
  relative viability: 0.308
EMC-BAC-2; first compound 1.265 µM
  relative viability: 0.264
EMC-BAC-2; first compound 4 µM
  relative viability: 0.305
NCI-H23; first compound 0.04 µM
  relative viability: 0.435
NCI-H23; first compound 0.1265 µM
  relative viability: 0.373
NCI-H23; first compound 0.4 µM
  relative viability: 0.364
NCI-H23; first compound 1.265 µM
  relative viability: 0.314
NCI-H23; first compound 4 µM
  relative viability: 0.578
NCI-H2009; first compound 0.04 µM
  relative viability: 0.752
NCI-H2009; first compound 0.1265 µM
  relative viability: 0.678
NCI-H2009; first compound 0.4 µM
  relative viability: 0.864
NCI-H2009; first compound 1.265 µM
  relative viability: 0.739
NCI-H2009; first compound 4 µM
  relative viability: 0.682
NCI-H838; first compound 0.04 µM
  relative viability: 0.249
NCI-H838; first compound 0.1265 µM
  relative viability: 0.28
NCI-H838; first compound 0.4 µM
  relative viability: 0.302
NCI-H838; first compound 1.265 µM
  relative viability: 0.228
NCI-H838; first compound 4 µM
  relative viability: 0.295
HCC-78; first compound 0.04 µM
  relative viability: 0.447
HCC-78; first compound 0.1265 µM
  relative viability: 0.494
HCC-78; first compound 0.4 µM
  relative viability: 0.559
HCC-78; first compound 1.265 µM
  relative viability: 0.436
HCC-78; first compound 4 µM
  relative viability: 0.493
LK-2; first compound 0.04 µM
  relative viability: 0.164
LK-2; first compound 0.1265 µM
  relative viability: 0.161
LK-2; first compound 0.4 µM
  relative viability: 0.173
LK-2; first compound 1.265 µM
  relative viability: 0.182
LK-2; first compound 4 µM
  relative viability: 0.203
A-427; first compound 0.04 µM
  relative viability: 0.224
A-427; first compound 0.1265 µM
  relative viability: 0.21
A-427; first compound 0.4 µM
  relative viability: 0.232
A-427; first compound 1.265 µM
  relative viability: 0.206
A-427; first compound 4 µM
  relative viability: 0.2
ABC-1; first compound 0.04 µM
  relative viability: 0.184
ABC-1; first compound 0.1265 µM
  relative viability: 0.166
ABC-1; first compound 1.265 µM
  relative viability: 0.177
ABC-1; first compound 4 µM
  relative viability: 0.207
HCC-366; first compound 0.04 µM
  relative viability: 0.119
HCC-366; first compound 0.1265 µM
  relative viability: 0.0909
HCC-366; first compound 0.4 µM
  relative viability: 0.161
HCC-366; first compound 1.265 µM
  relative viability: 0.103
HCC-366; first compound 4 µM
  relative viability: 0.095
NCI-H2023; first compound 0.04 µM
  relative viability: 0.374
NCI-H2023; first compound 0.1265 µM
  relative viability: 0.377
NCI-H2023; first compound 0.4 µM
  relative viability: 0.424
NCI-H2023; first compound 1.265 µM
  relative viability: 0.287
NCI-H2023; first compound 4 µM
  relative viability: 0.241
NCI-H1793; first compound 0.04 µM
  relative viability: 0.342
NCI-H1793; first compound 0.1265 µM
  relative viability: 0.341
NCI-H1793; first compound 0.4 µM
  relative viability: 0.364
NCI-H1793; first compound 1.265 µM
  relative viability: 0.276
NCI-H1793; first compound 4 µM
  relative viability: 0.329
NCI-H1734; first compound 0.04 µM
  relative viability: 0.31
NCI-H1734; first compound 0.1265 µM
  relative viability: 0.232
NCI-H1734; first compound 0.4 µM
  relative viability: 0.278
NCI-H1734; first compound 1.265 µM
  relative viability: 0.276
NCI-H1734; first compound 4 µM
  relative viability: 0.249
NCI-H2228; first compound 0.04 µM
  relative viability: 0.235
NCI-H2228; first compound 0.1265 µM
  relative viability: 0.309
NCI-H2228; first compound 0.4 µM
  relative viability: 0.273
NCI-H2228; first compound 1.265 µM
  relative viability: 0.227
NCI-H2228; first compound 4 µM
  relative viability: 0.239
